Measurements published in PubChem BioAssay AID2305 (GlaxoSmithKline (GSK), 2010).

What follows are molecules tested on P. falciparum 3D7 growth, pLDH absorbance (assay: blood-stage malaria parasite growth potency – strain 3D7, dose response (AID 2305)).

SMILES	IC50 [nM]
COc1ccc(CN2CCCC(N3CC4(OC3=O)c3ccccc3-c3ccccc34)C2)c(O)c1 (centres undefined)	870
c1ccc2c(CNCCCN3CCN(CCCNCc4c5ccccc5cc5ccccc45)CC3)c3ccccc3cc2c1	180
CC(=O)c1cc(N2CCCC2)ccc1N	20
FC(F)(F)c1ccc2nc(-c3ccc(-c4cccc(CN5CCCCC5)c4)cc3)[nH]c2c1	140
CCCCCCN1CCC(NCc2cccc(C#N)c2)CC1	780
Clc1cccc(CNC2CCN(CC3CCCCC3)CC2)c1	910
CCn1c(Sc2ccc(C#N)c([N+](=O)[O-])c2)nnc1-c1cccc(Cl)c1	450
CCCNCc1ccc(-c2ccc(CN(C(=O)c3nn(-c4ccccc4)nc3C)C3CCOCC3)cc2)nc1	140
Cc1cccc2[nH]c(-c3cccc(-c4cccc(NC(=O)C5CC(=O)Nc6ccccc65)c4)c3)nc12 (centres undefined)	60
CC(=O)Nc1cccc(C(=O)Nc2cccc(-c3ccc(-c4nc5c(C)cccc5[nH]4)cc3)c2)c1	910
CCCN(CCC)CCOc1ccc(C(O)(C#CC(O)(c2ccc(OCCN(CCC)CCC)cc2)c2cccc(Cl)c2)c2cccc(Cl)c2)cc1 (centres undefined)	790
COc1cc(Cc2cnc(N)nc2N)cc(OCCCN2C(=O)c3ccccc3C2=O)c1OC	990
CN1CCN(Cc2cccc(Nc3nccc(Nc4ccc(Oc5ccccc5)cc4)n3)c2)CC1	300
CCNc1cc(C(=O)N[C@@H](Cc2ccccc2)[C@H](O)CNCC(C)C)cc(N2CCCC2=O)c1	490
COc1ccc(CNCc2ccc(F)cc2)cc1-c1cccc(S(=O)(=O)NCCN2CCCC2)c1	800
Cc1ccc(NC(=O)Nc2ccc(Cl)c(C(F)(F)F)c2)cc1-c1ccc(C(=O)Nc2ccncc2)cc1	260
CCCCCn1c(Sc2ccc(C#N)c([N+](=O)[O-])c2)nnc1-c1cccs1	780
Cc1ccc(NC(=O)c2cccc(CN3CCCN(Cc4cccc(O)c4)CC3)c2)cc1F	710
O=C(CC1CCCC1)N(CC1CCN(Cc2ccc(C(F)(F)F)cc2)CC1)c1ccc(N2CCOCC2)c(F)c1	430
O=C(Cc1cccs1)NCC(c1ccccc1Cl)c1c[nH]c2ccccc12 (centres undefined)	1150
Cc1cccc2[nH]c(-c3ccc(-c4ccc(NC(=O)Nc5ccsc5)cc4)s3)nc12	110
Cn1cccc1C(=O)C(=O)Nc1cccc(-c2ccc(-c3nc4ccc(C(F)(F)F)cc4[nH]3)cc2)c1	790
CC(=O)c1ccc(NC(=O)CSc2nc(-c3ccccc3Cl)ns2)cc1	1130

SMILES	IC50 [nM]
Cc1nc(-c2ccc(-c3ccc(C(=O)Nc4ccc(Cl)c(N5CCN(C)CC5)c4)cc3)c(C)c2)no1	740
CCc1cc(NCc2ccncc2)nc(Nc2ccc(F)cc2)n1	1330
CCOc1ccc(Nc2ccc3nonc3c2S(=O)(=O)Nc2ccc(OCC)cc2)cc1	510
COc1cccc(C(=O)NCc2cccs2)c1Oc1ccccc1	60
CN(C)Cc1cccc(-c2ccc3ccnc(N)c3c2)c1	120
COc1cc(CN2CCC(CO)(Cc3cccc(C(F)(F)F)c3)CC2)c(Cl)cc1O	900
COc1ccc2c(c1)CCCC2NCCCCNC(=O)c1ccc(NC(=O)c2ccc(Cl)cc2)cc1 (centres undefined)	380
CCC(C)c1ccc(-n2c(Nc3ccccc3)nc3cc(S(N)(=O)=O)ccc32)cc1 (centres undefined)	1060
C[C@@H](Oc1cc(-n2cnc3ccc(NC(=O)NC(C)(C)C)cc32)sc1C(N)=O)c1ccccc1Cl	330
CN1CCCN(c2ccnc3cc4c(cc23)N(C(=O)c2ccc(Cl)cc2Cl)CC4)CC1	810
CCCNC[C@@H](O)[C@H](Cc1ccccc1)NC(=O)c1cc(NCC)cc(N2CCCCS2(=O)=O)c1	220
CC(C)C[C@@H](CNC[C@H](CC(C)C)NC(=O)OC(C)(C)C)NC(=O)OC(C)(C)C	1250
CC[C@H]1CN2CC[C@@H]1C[C@H]2[C@H](O)c1cc(N2CCC(O)(c3ccccc3)CC2)nc2ccc(OC)cc12	90
COc1ccc2c(ccc3c2ncc2c(=O)n(-c4ccccc4)[nH]c23)c1	520
O=[N+]([O-])c1cccc(C=NNc2ccnc3ccc(C(F)(F)F)cc23)c1	1090
COc1cc(Cc2cnc(N)nc2N)cc(OCCCCCCN)c1OC	190
Cc1cccc2[nH]c(-c3cccc(-c4ccc(C(=O)NCCc5ccc(O)c(=O)[nH]5)cc4)c3)nc12	1190
Cc1ccccc1C1CCN(C2CCC(NC(=O)c3cc(-c4ccc(Cl)cc4)cs3)CC2)CC1 (centres undefined)	160
COc1cccc(NC(=O)Nc2ccc(C)c(-c3ccc(C(=O)Nc4ccncc4)cc3)c2)c1	520
Brc1cc2c(cc1C=NNc1nc(Nc3ccccc3)nc(Nc3ccccc3)n1)OCO2	800
Cc1nnsc1C(=O)Nc1cccc(-c2csc(-c3nc4ccccc4[nH]3)c2)c1	350
Cc1nc(-c2ccc(-c3ccc(C(=O)Nc4ccc(-n5ccnc5)c(N5CCN(C)CC5)c4)cc3)c(C)c2)no1	830
CC(O)C1CCCCN1C(=O)c1cccc(-c2cccc(-c3nc4ccc(C(F)(F)F)cc4[nH]3)c2)c1 (centres undefined)	280

SMILES	IC50 [nM]
Nc1ncc(-c2ccsc2)c2ccc(-c3cc(NCc4ccccc4)ncn3)cc12	860
c1cc(CNCCc2ccncc2)cc(-c2ccc(-c3nc4ccccc4[nH]3)cc2)c1	150
CS(=O)(=O)c1cccc(-c2cnc(N)c3cc(-c4ccc(F)cc4)ccc23)c1	900
Cc1cc([N+](=O)[O-])ccc1NC(=O)Nc1cccc(C(F)(F)F)c1	720
FC(F)(F)c1ccc2nc(-c3ccc(-c4ccc(CNCC5CCCO5)cc4)cc3)[nH]c2c1 (centres undefined)	410
CC(C)(C)OC(=O)NCc1ccc(Nc2nnc(-c3ccc(OCC(=O)NCc4cc(C(F)(F)F)cc(C(F)(F)F)c4)c([N+](=O)[O-])c3)o2)cc1	460
CC(C)(C)c1ccc(NC(=O)c2ccc(CN3CCCN(Cc4ccsc4)CC3)cc2)cc1	720
Cc1cccc2[nH]c(-c3ccc(-c4cccc(CN5CCCCC5)c4)s3)nc12	470
COc1ccc2nccc(N3C[C@H]4C[C@@H]3CN4CCNCc3ccc4c(n3)NC(=O)CS4)c2n1	970
Cc1ccc2[nH]c3c(c2c1)CC(C(=O)NCCC(C)C)NC31CCN(Cc2ccccc2)CC1 (centres undefined)	930
C=CCOc1ccc(CNC2CCN(Cc3ccccc3)CC2)cc1Br	1420
CCn1c(-c2nc(-c3ccnc(N4CCN(C)CC4)c3)cnc2N)nc2cc(S(C)(=O)=O)ccc21	810
Cc1noc(C)c1-c1ccc2c(Nc3ccccc3C(C)(C)C)c(C(=O)NCc3ccccc3)cnc2c1	760
Cc1cc(NC(=O)NCCN2CCC(NC(=O)c3cccc(Br)c3)C2)c2ccccc2n1 (centres undefined)	550
FC(F)(F)c1cccc(CNC2CCN(CC3CCCCC3)CC2)c1	580
O=C(Nc1ccc(S(=O)(=O)NCCCN2CCOCC2)cc1)c1cc(-c2ccccc2)n[nH]1	770
NC(=O)c1cccc(C(=O)Nc2cccc(-c3cccc(-c4nc5ccccc5[nH]4)c3)c2)c1	550
c1ccc2[nH]c(Nc3ccc(Nc4nc5ccccc5[nH]4)cc3)nc2c1	780
COc1ccc(CCC(C)(C)NCC(O)c2cccc(C(F)(F)F)c2)cc1 (centres undefined)	480
S=C(NCCCCCN1CCC(c2c[nH]c3ccccc23)CC1)Nc1cccc(I)c1	840
CN(C)CCCN1C(=O)c2[nH]nc(-c3ccc(Cl)cc3O)c2C1c1ccc(Cl)cc1 (centres undefined)	760
CN(c1cc(NC(=O)c2ccc(F)cc2)ccn1)C1CCN(Cc2cccc(O)c2)CC1	920
CCOc1cc(NCCCNc2ncc([N+](=O)[O-])cc2C)nc2ccccc12	690
